The results in this text go back to patent publication US10106542B2, “Substituted 6,7-dihydropyrazolo[1,5-a]pyrazines as negative allosteric modulators of mGluR2 receptors” (Janssen Pharmaceutica NV, priority 2013, dated 2018).

Some results are limits rather than exact numbers.

The target in one data set is T1, human mGlu2 receptor (Homo sapiens, UniProt Q14416).
T1 construct: expressed in transfected cells; host or cells: CHO cells (membrane preparation)
Nature of the data set: [35S]GTPγS binding assay (mGluR2 negative allosteric modulation). It is filed as biochemical. The settings on record: for IC50: membranes from CHO cells transfected with human mGlu2 receptor, glutamate 60 μM, pIC50 = −log IC50 (M), read-out: GTPγS - hmGluR2 anGT pIC50 (converted); for Emax: relative maximal effect: maximal % inhibition relative to the control glutamate response, read-out: GTPγS - hmGluR2 anGT Emax. The method in brief: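 Negative allosteric modulation read as [35S]GTPγS (0.1 nM) incorporation over 30 min at 30 °C, expressed as % of the response to an EC80-equivalent glutamate concentration. Assay used 7 μg human mGlu2 CHO membrane protein in HEPES pH 7.4 buffer with NaCl, MgCl2, GDP and saponin; bound label collected by filtration.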
For orientation: GTPγS is a poorly hydrolysed GTP analogue; its binding reports G protein activation.

T1 sequence (Q14416 19-872): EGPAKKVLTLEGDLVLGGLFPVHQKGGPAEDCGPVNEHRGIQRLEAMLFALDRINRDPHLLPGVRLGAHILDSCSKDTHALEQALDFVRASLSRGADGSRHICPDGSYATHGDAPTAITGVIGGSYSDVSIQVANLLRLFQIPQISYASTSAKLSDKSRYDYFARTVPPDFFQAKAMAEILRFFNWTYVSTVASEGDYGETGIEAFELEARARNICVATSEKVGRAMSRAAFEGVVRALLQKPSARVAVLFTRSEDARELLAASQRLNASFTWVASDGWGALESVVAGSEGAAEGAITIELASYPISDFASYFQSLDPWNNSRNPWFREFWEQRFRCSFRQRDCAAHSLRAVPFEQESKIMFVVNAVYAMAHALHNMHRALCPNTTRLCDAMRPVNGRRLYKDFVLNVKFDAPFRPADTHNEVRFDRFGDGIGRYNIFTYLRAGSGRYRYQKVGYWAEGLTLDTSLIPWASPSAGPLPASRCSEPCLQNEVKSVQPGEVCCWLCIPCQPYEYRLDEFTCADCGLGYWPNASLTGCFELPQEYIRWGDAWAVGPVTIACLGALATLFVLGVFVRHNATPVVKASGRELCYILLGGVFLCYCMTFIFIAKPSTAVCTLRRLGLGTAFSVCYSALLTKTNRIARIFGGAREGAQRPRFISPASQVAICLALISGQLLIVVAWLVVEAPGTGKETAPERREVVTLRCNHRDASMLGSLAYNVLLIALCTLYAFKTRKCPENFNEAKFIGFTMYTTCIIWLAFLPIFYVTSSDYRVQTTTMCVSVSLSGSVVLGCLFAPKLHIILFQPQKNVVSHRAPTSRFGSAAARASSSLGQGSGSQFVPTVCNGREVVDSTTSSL

As to `COc1cc(-c2cnn3c2C(=O)N(c2ccc(Cl)c(Cl)c2)C[C@@H]3C)cc(C)n1` [compound 146], the melting point (usually the temperature of the solid-liquid transition) worked out at 166.8 °C. Besides, on human mGlu2 receptor, the IC50 was 1.66e-08 M and the Emax – broadly, the maximal effect, on the per cent scale that the assay sets – turned out to be 105%.

As for `COc1ccc(-c2cnn3c2C(=O)N(c2ccc(C(F)(F)F)cc2)C[C@@H]3C)cn1` [compound 150], the melting point was more than 300 °C. On human mGlu2 receptor, the IC50 was 4.68e-07 M and the Emax came out at 103%.

`C[C@H]1CN(c2ccc(C(F)(F)F)cc2)C(=O)c2c(-c3ccc(C#N)nc3)cnn21` [compound 151] gave a melting point of 157.6 °C. On human mGlu2 receptor, the IC50 was 1.2e-06 M and the maximum response (Emax) was determined as 103%.

The compound `Cc1cc(N2C[C@H](C)n3ncc(-c4ccncc4)c3C2=O)ccc1C(F)(F)F` [compound 153] came in with a melting point of 162 °C. For the same compound, on human mGlu2 receptor, the IC50 was 1.45e-08 M and the Emax came to 103%.

As for `C[C@H]1CN(c2ccc(C(F)(F)F)c(C#N)c2)C(=O)c2c(-c3ccncc3)cnn21` [compound 155], the melting point is 101.8 °C. In addition, on human mGlu2 receptor, the IC50 is 8.13e-08 M and the Emax is 103%.

In turn, `Cc1cc(-c2cnn3c2C(=O)N(c2ccc(C(F)(F)F)c(C)c2)C[C@@H]3C)cc(C)n1` [compound 157] yielded a melting point of 158.9 °C. At human mGlu2 receptor, the IC50 is 8.71e-09 M and the Emax amounted to 104%.

The compound `COCc1cc(N2C[C@H](C)n3ncc(-c4ccnc(C)c4)c3C2=O)ccc1C(F)(F)F` [compound 158] showed a melting point of 48.2 °C. Also, on human mGlu2 receptor, the IC50 is 2.51e-08 M and the maximum response (Emax) came to 106%.

For `Cc1cc(-c2cnn3c2C(=O)N(c2cc(Cl)cc(Cl)c2)C[C@@H]3C)ccn1` [compound 159], the melting point amounted to 71.5 °C. Moreover, at human mGlu2 receptor, the IC50 is 1.35e-08 M and the Emax was determined as 104%.

`Cc1cc(-c2cnn3c2C(=O)N(c2ccc(OCC(F)(F)F)cc2)C[C@@H]3C)ccn1` [compound 160] came in with a melting point of 129.5 °C. Further, at human mGlu2 receptor, the IC50 was 1.07e-07 M and the Emax came out at 106%.

Take `Cc1cc(-c2cnn3c2C(=O)N(c2ccc(C(F)F)cc2)C[C@@H]3C)ccn1` [compound 162]: the melting point is 185.9 °C. Besides, at human mGlu2 receptor, the IC50 was 1.29e-07 M and the maximum response (Emax) stood at 102%.

On to `C[C@H]1CN(c2ccc(Cl)c(Cl)c2)C(=O)c2c(-c3ccnc(F)c3)cnn21` [compound 164], for which the melting point was 170.3 °C. Further, on human mGlu2 receptor, the IC50 is 5.5e-09 M and the Emax is 107%.

In turn, `Cc1cc(-c2cnn3c2C(=O)N(c2ccc(OC(F)F)c(Cl)c2)C[C@@H]3C)ccn1` [compound 168] displayed a melting point of 108.5 °C. At human mGlu2 receptor, the IC50 was 2.51e-08 M and the Emax came out at 106%.

`Cc1cc(-c2cnn3c2C(=O)N(c2ccc(Cl)c(OC(F)(F)F)c2)C[C@@H]3C)ccn1` [compound 169] registered a melting point of 64.7 °C. On human mGlu2 receptor, the IC50 was 6.03e-09 M and the Emax came out at 105%.

Turning to `Cc1cc(-c2cnn3c2C(=O)N(c2ccc(C(F)(F)F)cc2)CC3(C)C)ccn1` [compound 171], the melting point is 158.8 °C. Besides, at human mGlu2 receptor, the IC50 was 1.7e-05 M and the Emax was determined as 94%.

Regarding `Cc1cc(-c2cnn3c2C(=O)N(c2ccc(C(F)F)c(Cl)c2)C[C@@H]3C)ccn1` [compound 174], the melting point amounted to 127.5 °C. For the same compound, at human mGlu2 receptor, the IC50 is 1e-08 M and the Emax came out at 105%.

The compound `C[C@H]1CN(c2ccc(C(F)(F)F)cc2)C(=O)c2c(-c3ccnc(N4CCNCC4)c3)cnn21.Cl` [compound 175, (7S)-7-Methyl-3-(2-piperazin-1-yl-4-pyridyl)-5-[4-(trifluoromethyl)phenyl]-6,7-dihydropyrazolo[1,5-a]pyrazin-4-one hydrochloride salt] gave a melting point of 220.8 °C. Also, on human mGlu2 receptor, the IC50 was 1.35e-06 M and the Emax was 102%.

Regarding `C[C@H]1CN(c2ccc(C(F)(F)F)cc2)C(=O)c2c(-c3ccc(N4CCNCC4)nc3)cnn21` [compound 176, (7S)-7-Methyl-3-(6-piperazin-1-yl-3-pyridyl)-5-[4-(trifluoromethyl)phenyl]-6,7-dihydropyrazolo[1,5-a]pyrazin-4-one], the melting point was more than 300 °C. At human mGlu2 receptor, the IC50 is 6.31e-06 M and the Emax amounted to 85%.

Compound `CNc1cc(-c2cnn3c2C(=O)N(c2ccc(C(F)(F)F)c(OC)c2)C[C@@H]3C)ccn1` [compound 183] displayed a melting point of 125.6 °C. Also, at human mGlu2 receptor, the IC50 is 2.29e-08 M and the Emax worked out at 103%.

Regarding `Cc1cc(-c2cnn3c2C(=O)N(c2ccc(C(F)(F)F)c(Cl)n2)C[C@@H]3C)ccn1` [compound 188, (7S)-5-[6-chloro-5-(trifluoromethyl)-2-pyridyl]-7-methyl-3-(2-methyl-4-pyridyl)-6,7-dihydropyrazolo[1,5-a]pyrazin-4-one], the melting point turned out to be 161.4 °C. Also, at human mGlu2 receptor, the IC50 is 4.07e-09 M and the Emax was 108%.

As to `CCOc1nc(N2C[C@H](C)n3ncc(-c4ccnc(C)c4)c3C2=O)ccc1C(F)(F)F` [compound 189, (7S)-5-[6-Ethoxy-5-(trifluoromethyl)-2-pyridyl]-7-methyl-3-(2-methyl-4-pyridyl)-6,7-dihydropyrazolo[1,5-a]pyrazin-4-one], the melting point stood at 142.4 °C. At human mGlu2 receptor, the IC50 is 4.07e-08 M and the Emax stood at 102%.

`CCOc1ccc(N2C[C@H](C)n3ncc(-c4ccnc(C)c4)c3C2=O)nc1F` [compound 191] returned a melting point of 60.7 °C. In addition, at human mGlu2 receptor, the IC50 was 1.07e-06 M and the Emax came to 109%.

With `C[C@H]1CN(c2ccc(C(F)(F)F)cn2)C(=O)c2c(-c3ccnc(F)c3)cnn21` [compound 197], the melting point came to 146.6 °C. On human mGlu2 receptor, the IC50 was 1.51e-07 M and the Emax is 104%.

In turn, `Cc1cc(-c2cnn3c2C(=O)N(c2cc(Cl)c(C(F)(F)F)cn2)C[C@@H]3C)ccn1` [compound 204, (7S)-5-[4-Chloro-5-(trifluoromethyl)-2-pyridyl]-7-methyl-3-(2-methyl-4-pyridyl)-6,7-dihydropyrazolo[1,5-a]pyrazin-4-one] displayed a melting point of 292.8 °C. At human mGlu2 receptor, the IC50 was 4.9e-09 M and the Emax was found to be 107%.

`CCOc1nc(N2C[C@H](C)n3ncc(-c4cc(C)nc(C)c4)c3C2=O)ccc1C(F)(F)F` [compound 205]: the melting point came out at 179.2 °C. In addition, at human mGlu2 receptor, the IC50 is 1.02e-08 M and the Emax was 102%.

The compound `COc1nc(N2C[C@H](C)n3ncc(-c4ccnc(C)c4)c3C2=O)ccc1C(F)(F)F` [compound 207] came in with a melting point of 147.6 °C. For the same compound, on human mGlu2 receptor, the IC50 was 3.8e-09 M and the Emax worked out at 109%.

`CCOc1nc(N2C[C@H](C)n3ncc(-c4ccncc4)c3C2=O)ccc1C(F)(F)F` [compound 208] had a melting point of 141.3 °C. Moreover, on human mGlu2 receptor, the IC50 is 2.24e-08 M and the Emax is 107%.

In the case of `CNc1cc(-c2cnn3c2C(=O)N(c2ccc(C(F)(F)F)cn2)C[C@@H]3C)ccn1` [compound 210], the melting point is 125.66 °C (dec.). Also, on human mGlu2 receptor, the IC50 is 2.34e-08 M and the Emax was found to be 105%.

Compound `Cc1cc(-c2cnn3c2C(=O)N(c2ccc(C(F)(F)F)cc2)CC3C(C)O)ccn1` (stereo not drawn) [compound 217] had a melting point of 255.5 °C. For the same compound, on human mGlu2 receptor, the IC50 was 4.47e-06 M and the Emax is 97%.

Compound `CC(=O)N1CC(c2ccc(-c3cnn4c3C(=O)N(c3ccc(C(F)(F)F)cc3)C[C@@H]4C)cn2)C1` [compound 235] had a melting point of 93 °C. In addition, at human mGlu2 receptor, the IC50 was 1.26e-06 M and the Emax amounted to 102%.

`COc1cc(-c2cnn3c2C(=O)N(c2ccc(C(F)(F)F)c(OC)n2)C[C@@H]3C)ccn1` [compound 240]: the melting point is 107.87 °C (dec.). In addition, on human mGlu2 receptor, the IC50 was 6.76e-09 M and the maximal response (Emax) came to 109%.

On to `CC(C)Nc1cc(-c2cnn3c2C(=O)N(c2ccc(C(F)(F)F)cc2)C[C@@H]3C)ccn1` [compound 266], for which the melting point stood at 173.08 °C. On human mGlu2 receptor, the IC50 was 5.25e-08 M and the Emax came out at 106%.

`Cc1cc(N2C[C@H](C)n3ncc(-c4ccnc(NC(C)C)c4)c3C2=O)ccc1C(F)(F)F` [compound 267] had a melting point of 131.3 °C. Also, on human mGlu2 receptor, the IC50 is 2.24e-08 M and the Emax worked out at 107%.
